Measurements: paper PMC9635080, “Design, synthesis, in vitro, and in silico biological evaluations of coumarin-indole hybrids as new anti-α-glucosidase agents” (BMC Chemistry, 2022)

Key:
yeast α-glucosidase [1] = target: T1, yeast α-glucosidase (Saccharomyces cerevisiae, UniProt P53341); assay: In vitro α-glucosidase inhibition assay; type: biochemical; conditions: for inhibitory activity against α-glucosidase (in words): SAR discussion; for potency relative to acarbose: fold more potent than acarbose, from IC50 values
T1 construct: purchased Sigma-Aldrich
Procedure: Appropriate enzyme concentration was obtained in potassium phosphate buffer (pH 6.8, 50 mM), and coumarin-indole hybrids 4a–m were dissolved in DMSO (10% final concentration). […] The percentage of enzyme inhibition (% Inhibition) for each sample was calculated by using the following formula: %Inhibition=[(Abs control-Abs sample)/Abs control]×100
IC50 values were calculated from non-linear regression curve using by the Logit method.

yeast α-glucosidase [2] = target: T1, yeast α-glucosidase; assay: Kinetic study (Lineweaver–Burk plot) on α-glucosidase; type: biochemical
Procedure: To determine the mechanism of α-glucosidase inhibition of the newly synthesized compounds, the kinetic study was performed on compound 4d as representative compound. The relative velocity of the α-glucosidase was determined on four increasing concentrations of the p-nitrophenyl glucopyranoside as substrate. […] Then, the Lineweaver-Burke plot was depicted using the reciprocal of velocity and substrate concentration (Fig. 2a).
Fig. 2 Kinetic study of compound 4d into α-glucosidase. a The Lineweaver–Burk plot in the absence and presence of different concentrations of compound 4d; b The secondary plot between Km and various concentrations of compound 4d
Appropriate enzyme concentration was obtained in potassium phosphate buffer (pH 6.8, 50 mM), and coumarin-indole hybrids 4a–m were dissolved in DMSO (10% final concentration). The potassium phosphate buffer (135 µL), various concentrations of the target compounds 4a–m (20 µL), and prepared enzyme solution (20 µL) were added to the 96-well plate and the later mixture was incubated for 10 min at 37 °C. […] Finally, the change in absorbance of the final mixture was measured at 405 nm by using spectrophotometer (Gen5, Power wave xs2, BioTek, America). […] The percentage of enzyme inhibition (% Inhibition) for each sample was calculated by using the following formula: %Inhibition=[(Abs control-Abs sample)/Abs control]×100

T1 sequence (P53341 whole entry): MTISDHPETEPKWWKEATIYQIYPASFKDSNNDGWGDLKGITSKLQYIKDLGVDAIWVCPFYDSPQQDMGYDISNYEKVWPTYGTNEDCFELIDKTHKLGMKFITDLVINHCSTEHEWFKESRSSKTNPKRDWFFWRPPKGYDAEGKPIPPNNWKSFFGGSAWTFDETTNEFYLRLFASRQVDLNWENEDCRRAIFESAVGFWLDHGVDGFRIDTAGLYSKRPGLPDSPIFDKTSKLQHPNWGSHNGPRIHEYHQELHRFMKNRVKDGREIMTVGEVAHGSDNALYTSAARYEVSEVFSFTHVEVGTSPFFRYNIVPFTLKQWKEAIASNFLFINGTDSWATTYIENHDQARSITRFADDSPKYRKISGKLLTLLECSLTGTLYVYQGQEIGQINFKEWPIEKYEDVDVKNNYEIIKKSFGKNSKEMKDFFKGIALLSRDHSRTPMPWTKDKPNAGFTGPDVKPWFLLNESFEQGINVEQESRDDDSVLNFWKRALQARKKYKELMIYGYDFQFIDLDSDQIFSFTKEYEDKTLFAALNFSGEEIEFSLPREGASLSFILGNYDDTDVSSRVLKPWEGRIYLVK

SMILES: O=c1oc2ccccc2c(O)c1C(c1cccc(O)c1)c1c[nH]c2ccccc12 (stereo not drawn) [Compound 4e, 4-Hydroxy-3-((3-hydroxyphenyl)(1H-indol-3-yl)methyl)-2H-chromen-2-one]
- IC50 (yeast α-glucosidase [1]): > 750 µM
- inhibitory activity against α-glucosidase (in words) (yeast α-glucosidase [1]): loss of effect
- melting point: 200 to 202 °C

SMILES: O=c1oc2ccccc2c(O)c1C(c1ccc(F)cc1)c1c[nH]c2ccccc12 (stereo not drawn) [Compound 4h, 3-((4-Fluorophenyl)(1H-indol-3-yl)methyl)-4-hydroxy-2H-chromen-2-one]
- IC50 (yeast α-glucosidase [1]): 474.9 ± 2.6 µM
- inhibitory activity against α-glucosidase (in words) (yeast α-glucosidase [1]): dramatically decrease in inhibitory activity
- melting point: 243 to 245 °C

SMILES: O=c1oc2ccccc2c(O)c1C(c1ccc(O)cc1)c1c[nH]c2ccccc12 (stereo not drawn) [Compound 4f, 4-Hydroxy-3-((4-hydroxyphenyl)(1H-indol-3-yl)methyl)-2H-chromen-2-one]
- IC50 (yeast α-glucosidase [1]): > 750 µM
- inhibitory activity against α-glucosidase (in words) (yeast α-glucosidase [1]): loss of effect
- melting point: 286 to 288 °C

SMILES: O=c1oc2ccccc2c(O)c1C(c1cccc(Oc2ccccc2)c1)c1c[nH]c2ccccc12 (stereo not drawn) [Compound 4d, 3-((1H-indol-3-yl)(3-phenoxyphenyl)methyl)-4-hydroxy-2H-chromen-2-one]
- Ki (yeast α-glucosidase [2]): 148 µM
- type of inhibition (yeast α-glucosidase [2]; Lineweaver–Burk plot, inhibitor 0, 28, 58 and 116 µM): competitive type of inhibition
- IC50 (yeast α-glucosidase [1]): 116 ± 0.7 µM
- potency relative to acarbose (yeast α-glucosidase [1]): around sixfold
- melting point: 183 to 185 °C

SMILES: O=c1oc2ccccc2c(O)c1C(c1cccc([N+](=O)[O-])c1)c1c[nH]c2ccccc12 (stereo not drawn) [Compound 4m, 3-((1H-indol-3-yl)(3-nitrophenyl)methyl)-4-hydroxy-2H-chromen-2-one]
- IC50 (yeast α-glucosidase [1]): 180.5 ± 1.4 µM
- melting point: 198 to 200 °C

SMILES: O=c1oc2ccccc2c(O)c1C(c1ccccc1[N+](=O)[O-])c1c[nH]c2ccccc12 (stereo not drawn) [Compound 4l, 3-((1H-indol-3-yl)(2-nitrophenyl)methyl)-4-hydroxy-2H-chromen-2-one]
- IC50 (yeast α-glucosidase [1]): > 750 µM
- inhibitory activity against α-glucosidase (in words) (yeast α-glucosidase [1]): completely abolished anti-α-glucosidase activity
- melting point: 240 to 242 °C

SMILES: O=c1oc2ccccc2c(O)c1C(c1cccc(F)c1)c1c[nH]c2ccccc12 (stereo not drawn) [Compound 4g, 3-((3-Fluorophenyl)(1H-indol-3-yl)methyl)-4-hydroxy-2H-chromen-2-one]
- IC50 (yeast α-glucosidase [1]): 174 ± 2.3 µM
- melting point: 222 to 224 °C

SMILES: O=c1oc2ccccc2c(O)c1C(c1cccc(Cl)c1)c1c[nH]c2ccccc12 (stereo not drawn) [Compound 4i, 3-((3-Chlorophenyl)(1H-indol-3-yl)methyl)-4-hydroxy-2H-chromen-2-one]
- IC50 (yeast α-glucosidase [1]): > 750 µM
- inhibitory activity against α-glucosidase (in words) (yeast α-glucosidase [1]): loss of effect
- melting point: 205 to 207 °C

SMILES: O=c1oc2ccccc2c(O)c1C(c1cccc(Br)c1)c1c[nH]c2ccccc12 (stereo not drawn) [Compound 4k, 3-((3-Bromophenyl)(1H-indol-3-yl)methyl)-4-hydroxy-2H-chromen-2-one]
- IC50 (yeast α-glucosidase [1]): > 750 µM
- inhibitory activity against α-glucosidase (in words) (yeast α-glucosidase [1]): did not show activity
- melting point: 212 to 214 °C

SMILES: COc1ccc(C(c2c(O)c3ccccc3oc2=O)c2c[nH]c3ccccc23)cc1 (stereo not drawn) [Compound 4c, 3-((1H-indol-3-yl)(4-methoxyphenyl)methyl)-4-hydroxy-2H-chromen-2-one]
- IC50 (yeast α-glucosidase [1]): 170 ± 2.1 µM
- melting point: 246 to 248 °C

SMILES: O=c1oc2ccccc2c(O)c1C(c1ccc(Cl)cc1)c1c[nH]c2ccccc12 (stereo not drawn) [Compound 4j, 3-((4-Chlorophenyl)(1H-indol-3-yl)methyl)-4-hydroxy-2H-chromen-2-one]
- IC50 (yeast α-glucosidase [1]): 230 ± 2.3 µM
- melting point: 235 to 237 °C

SMILES: Cc1ccc(C(c2c(O)c3ccccc3oc2=O)c2c[nH]c3ccccc23)cc1 (stereo not drawn) [Compound 4b, 3-((1H-indol-3-yl)(p-tolyl)methyl)-4-hydroxy-2H-chromen-2-one]
- IC50 (yeast α-glucosidase [1]): 167.5 ± 0.8 µM
- melting point: 269 to 271 °C

SMILES: O=c1oc2ccccc2c(O)c1C(c1ccccc1)c1c[nH]c2ccccc12 (stereo not drawn) [Compound 4a, 3-((1H-indol-3-yl)(phenyl)methyl)-4-hydroxy-2H-chromen-2-one]
- IC50 (yeast α-glucosidase [1]): 118 ± 3.1 µM
- potency relative to acarbose (yeast α-glucosidase [1]): around sixfold
- melting point: 231 to 233 °C
